Experimental findings from US11738099B2, “Molecular probes and methods of use” (CASE WESTERN RESERVE UNIVERSITY, priority 2014, dated 2023) are described below.

Structures are written as SMILES. Where a SMILES comes first, the peptide text is derived from it. The star is where a group is joined. X1 = O=C(O)CN1CCN(CC(=O)O)CCN(CC(O)Cn2cc(CCCC(=O)*)nn2)CCN(CC(=O)O)CC1; PEG2 = NCCOCCOCCC(=O)O

Series [1] in a line: r1 relaxivity by T1 mapping in PC3 tumor lysates. Type of series: physicochemical.
Series [2] in a line: In vitro complexation stability in PBS with Cu2+, Ca2+, Zn2+. It is filed as physicochemical. As for the experimental part:
FIGS. 16(A-B) illustrate in vitro complexation stability and transmetallation analysis of ZD2-Gd(HP-DO3A). A) relative Gd content of ZD2-Gd(HP-DO3A) assayed during 200-min incubation of the agent in phosphate buffer saline (PBS) with and without Cu^2+, Ca^2+, or Zn^2+ ions. […] B) In vitro transmetallation analysis of MultiHance, OmniScan, ProHance (abbreviated as Pro.), and ZD2-Gd(HP-DO3A) (abbreviated as ZD2) in mouse senim.

For series [3] the following is noted: mouse, in vivo.
Experimental: (§3) PC3 tumor-bearing athymic nude mice (sixteen mice) were randomly divided into 4 groups (four mice each group). […] The animals were sacrificed at 2 and 7 days after injection. The blood and tissue samples, including brain, femur, heart, lung, liver, muscle, spleen, and kidney, were collected and weighed. The tissue samples were then cut into small pieces and mixed with ultra-pure nitric acid (1.0 mL, 70%, EMD, Gibbstown, N.J.). The tissue samples were liquefied within 2 weeks and the solution was transferred to a centrifuge tube and centrifuged at 14,000 rpm for 15 min. The supernatant (0.2 mL) was diluted with 9.8 mL deionized water and further centrifuged at 14,000 rpm for 15 min. The Gd(III) concentration in the final supernatant was measured by ICP-OES. […] The Gd content in different organ/tissues was calculated as the percentage of injected dose per gram of organ/tissues (% Dose/g).
Series [4] relates to PC-3 human prostate cancer xenograft. In words: MRI of PC-3 xenograft (Example 2). It is filed as in vivo, mouse. To be noted: 0.1 mmol-Gd/kg intravenous. The source says:
The same contrast agent also works for prostate cancer imaging. We then tested the effectiveness of targeting EDB-FN with the contrast agent for prostate cancer MRI in male nude mice bearing primary PC-3 human prostate cancer xenograft.

The next series has as its system PC3 tumors. Here is the method: (§1) The following imaging parameters were used for T1 mapping methods: flip angle 10°; echo time 2.09 ms; slice thickness 1 mm; number of average 1; field of view 3×3 cm^2; matrix size 128×128. For each slice, 50 images that covered 5 s of the saturation recovery curve were acquired within an interval of 100 ms. Proton density (Mn) images were acquired with repetition time (TR) of 2 s. Cartesian MRSLL images were also acquired as a validation of spiral MRSLL method. Center 64 k-space lines were acquired in Cartesian method as described previously. Other acquisition parameters were the same as spiral MRSLL.
(§2) Quantitative T1 maps of the tumors were acquired before and at 30 min after the injection of ZD2-Gd(HP-DO3A) and ProHance. […] At the end of the T1 map acquisitions, the mice were sacrificed and the Gd concentration in their tumors was measured by inductively coupled plasma optical emission spectrometry (ICP-OES).

The subject of another series is LNCaP tumors. Particulars: 30 min after injection; before injection 3.21±0.12 s. As for the experimental part:
as §1, §2

A short description of series [5]: Relaxivity measurement at 7T in PBS. It is filed as physicochemical. Here is the method: To accurately capture T1 maps, a fast T1 mapping method was developed. This accelerated multi-slice T1-mapping method combines a saturation recovery look-locker sequence and spiral k-space sampling^40. The NMR tubes filled with 3.12-50 μM ZD2-Gd(HP-DO3A) were positioned in a mouse coil and scanned with T1-weighted spin echo sequence, cartesian T1-mapping sequence, and spiral T1-mapping sequence. Axial images were acquired. CNR values from the T1-weighted sequence were calculated from signal from the samples subtracting surrounding water signal, and divided by noise. T1 values of the samples were reconstructed by fitting signal change during the acquisition time to the adapted T1-relaxation curve.

A short description of series [6]: Gd biodistribution (ICP-OES). To be noted: 1 week after injection.
Experimental: as §3
Series [7] concerns LNCaP prostate tumor xenografts. The series can be described thus: In vivo T1-weighted MRI at 7T, LNCaP tumors. Also on record: species or system mouse. Here is the method:
All MRI experiments were performed on a horizontal 7T Bruker scanner (Bruker Biospin Co., Billerica, Mass.). Imaging experiments were performed when the tumor size reached 5-8 mm in diameter. ZD2-Gd(HP-DO3A) was administered intravenously at the dose of 0.1 mmol/kg after acquiring pre-contrast images. Post-contrast images were obtained at 10 min interval up to 30 min. The axial slices of mouse at the tumor location were acquired using T1-weighted spin echo sequence with the following parameters: field of view (FOV): 3 cm; slice thickness: 1.2 mm; interslice distance: 1.2 mm; TR: 500 ms, TE: 8.1 ms; flip angle: 90°; average: 2; matrix size: 128×128. Contrast-to-noise ratio (CNR) at each time point was calculated by subtraction of the average signal intensity in the tumor and muscle, divided by the standard deviation of image noise. ProHance® (gadoteridol) was used as a control in the imaging experiments.

Series [8] has as its system PC3 prostate tumor xenografts. In words: T1-weighted MRI at 1 Tesla, PC3 tumors (Example 3). Type of series: in vivo, mouse. As for the experimental part: Male athymic nude mice were purchased from Case Comprehensive Cancer Center (Cleveland, Ohio, USA) and housed in the Animal Core Facility at Case Western Reserve University. All animal experiments were performed in accordance with the animal protocol approved by the CWRU Institutional Animal Care and Use Committee. Athymic nude male mice were subcutaneously injected with 100 μL cell suspension (4×10^7 cells/mL) in matrigel matrix (Corning Bioscience, Corning, N.Y.) to initiate tumors. Mice with tumors of 5-8 mm in diameter were used for imaging studies.
MR images of tumor bearing mice were acquired on an Aspect M3 small animal MRI scanner (1 Tesla). Mice were placed on a holder with the temperature maintained at 37° C., with isoflurane/oxygen mixture supplied to the mice through a nose cone. A thin catheter filled with PBS was connected to a tail vein of the mice. After mice were placed in the coil, a pilot scan was performed to adjust mice to the proper location in the coil. An axial T1 weighted sequence (TR=500 ms; TE=9 ms; Flip angle=90°; Field of view=3 cm×3 cm; Matrix size=128×128×8; slice thickness=2 mm; interslice distance=1 mm) was then used to acquire the images of the tumors before and 10 min, 20 min and 30 min after contrast injection. Images were exported into DICOM data, which were then processed and analyzed using Matlab (Natick, Mass., USA). The contrast to-noise ratio of tumors in the images were calculated as the difference between tumor mean intensity minus muscle mean intensity, divided by the noise.

A short description of series [9]: In vitro transmetallation in serum. It is filed as in vitro ADME, human. Particulars: blood plasma containing Cu2+, Ca2+, Zn2+; vs MultiHance and OmniScan. As for the experimental part:
[…] The plasma mixtures were transferred to CF-10 centrifugal filters (molecular weight cut-off 10 KDa) and centrifuged at 4,000 rpm and 25° C. for 150 min. During centrifugation, the solution in the upper reservoir was agitated using a pipette every 20 min for the plasma mixtures. The content of metal ions in both the upper reservoir and the filtrates was determined by ICP-OES after appropriate dilution. The degree of transmetallation of the contrast agents with Zn(II) or Cu(II) ions in the plasma was evaluated using the percentage of Zn(II) or Cu(II) ions filtered through the membrane, calculated as Zn(Cu) %=(concentration of Zn(II) or Cu(II) in the filtrates)/(total Zn(II) or Cu(II) concentration before centrifugal filtration)×100. Human serum was used a control.

`CC(C)[C@H](NC(=O)[C@@H](NC(=O)CCOCCOCCNC(=O)CCCc1cn(CC(O)CN2CCN(CC(=O)O)CCN(CC(=O)O)CCN(CC(=O)O)CC2)nn1)[C@@H](C)O)C(=O)N[C@@H](CCCNC(=N)N)C(=O)N[C@H](C(=O)N[C@@H](CO)C(=O)N[C@@H](C)C(=O)N[C@@H](CC(=O)O)C(=O)O)[C@@H](C)O` (stereo partly drawn) [ZD2-Gd(HP-DO3A)] ({X1-PEG2}-TVRTSAD-OH) showed a r1 relaxivity in series [1] of 4.12 mM⁻¹ s⁻¹. Also, in series [2] (200-min incubation in PBS with and without Cu2+, Ca2+, or Zn2+), the “relative Gd content” value is listed as “No decrease in Gd content”. Besides, the “transmetallation with endogenous metal ions” value in series [2] (24 hours of incubation with Cu2+, Ca2+, Zn2+ in PBS (pH=7.4)) is recorded as “no evident transmetallation”. For the same compound, the “Gd(III) concentration in most of the organs, including the brain, heart, and skin” value in series [3] is recorded as “below the detection limit”. The tumor contrast enhancement entry in [4] is reported as “robust tumor enhancement for at least 30 min”. The “tumor T1” value is 1.81 ± 0.07 s with PC3 tumors (30 min after injection, before injection 2.75±0.05 s) and 2.54 ± 0.13 s in the series on LNCaP tumors. The “change in relaxation rate (ΔR1)” value in the series with PC3 tumors (among all cases (PC3/LNCaP, ZD2-Gd(HP-DO3A)/ProHance)) is “highest relaxation rate change”. Besides, the “Gd concentration in PC3 tumors by ICP-OES” value with PC3 tumors (mouse, in vivo) is listed as “significantly higher concentration”. This compound displayed a T1 relaxivity in [5] of 3.7 mM⁻¹ s⁻¹. In addition, the “tissue retention of Gd” value in [6] is given as “same low tissue retention as ProHance”. Besides, the “signal enhancement in LNCaP tumors” value in series [7] (0.1 mmol/kg i.v., up to 30 min, 7T) is given as “significantly lower signal enhancement”. Besides, the “CNR in LNCaP tumors” value in series [7] (10-30 min post-injection) was 6-9. The “increase of CNR in LNCaP tumors” value in series [7] (during the first 30 min after injection) was 10-60%. For the same compound, the “CNR in LNCaP tumors relative to PC3 tumors” value in series [7] (first 30 min) was “more than two times lower”. Moreover, the “signal enhancement in PC3 tumors” value in [8] (0.1 mmol/kg i.v., up to 30 min, 1 Tesla) is on record as “Strong signal enhancement”. Also, the “increase of contrast-to-noise ratio (CNR) in PC3 tumors” value in series [8] (10 min after injection) is given as “over two-fold increase”. Further, in [9], the stability against transmetallation entry was “same high stability as ProHance”.
